Reference: PubChem BioAssay AID179 (DTP/NCI, 2004)
Calls of active or inactive are those of the source.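 The calls were made as follows: active = compounds giving half or more protection of infected cells from virus-caused growth loss, again on retest; inactive = the rest.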

System: CEM cells HIV-1 protection, formazan growth assay
Experiment: NCI AIDS Antiviral Assay
Details: for IC50: measured here: growth of uninfected CEM cells
Procedure, shortened: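 Protection of CEM cells against HIV-1 measured as cell growth via soluble formazan read-out, with five concentrations tested on both infected and uninfected cells; failure to protect may reflect toxicity.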

O=[N+]([O-])c1ccc(OC2CC3C4C=CC3C2C4)c([N+](=O)[O-])c1 (configuration not stated)
EC50: > 200 µM | IC50: > 200 µM

Nc1ncnc2c1ncn2C1OC(CO)C(O)C(O)C1O (configuration not stated)
EC50: > 200 µM | IC50: > 200 µM

COc1ccc(C2CN(C(=O)c3ccccc3)N=C(c3ccccc3)O2)cc1 (configuration not stated)
EC50: > 17 µM | IC50: > 17 µM

COC(=O)C1=C(O)C(O)=C(C(=O)OC)CC1
EC50: 468 µM | IC50: 912 µM

C=CCSCC1Nc2cc(Cl)c(S(N)(=O)=O)cc2S(=O)(=O)N1C (configuration not stated)
EC50: > 234 µM | IC50: 91.2 µM

COC(=O)c1cc(C(=CCCCC=O)c2cc(Cl)c(OC)c(C(=O)OC)c2)cc(Cl)c1OC
EC50: > 200 µM | IC50: 11.5 µM

CC(=O)Oc1ccc(O)c(O)c1C/C=C(\C)CC/C=C(\C)CC/C=C(\C)CCC=C(C)C
outcome: inactive

O=C(O)c1c2c(nc3ccccc13)CCCC2
EC50: > 398 µM | IC50: > 398 µM

Nc1ncnc2c1ncn2CC1COC(CO)O1 (configuration not stated)
EC50: > 1000 µM | IC50: > 1000 µM

COP(=O)(/C=C/c1cc(C(=O)OCc2ccccc2)n(S(=O)(=O)c2ccccc2)c1)OC
EC50: 145 µM | IC50: > 200 µM

Cc1cn(CC2=NCC(C)N2)c(=O)[nH]c1=O (configuration not stated)
EC50: > 200 µM | IC50: > 200 µM

Cc1ccc(S(=O)(=O)OCC23CCC(C2)C2CC23)cc1 (configuration not stated)
EC50: > 100 µM | IC50: > 100 µM

N#CCc1ccc(C(C#N)/C(CCCC(=O)Nc2cccc([N+](=O)[O-])c2)=N/NC(N)=S)cc1 (configuration not stated)
outcome: inactive

CC1=N/C(=C\c2cccs2)C(=O)O1
EC50: > 200 µM | IC50: > 200 µM

O=C1NC(Cc2ccc(O)cc2)C(=O)N2CCCC12 (configuration not stated)
EC50: > 955 µM | IC50: > 955 µM

O=C(CC1(O)C(=O)Nc2ccccc21)c1ccncc1 (configuration not stated)
outcome: inactive

S=C1SC(=Nc2ccccc2)C(=Nc2ccccc2)N1c1ccccc1
EC50: > 200 µM | IC50: 91.2 µM

O=C(O)C1C2CC3CC2CC31 (configuration not stated)
outcome: inactive

C[S+]1CC2C3CC(C#N)C(C3)C2C1 (configuration not stated)
EC50: > 275 µM | IC50: > 275 µM

CC(C)N(C(=O)C12C3C4C1C1C2C3C41C#N)C(C)C (configuration not stated)
EC50: > 513 µM | IC50: > 513 µM

O=c1n(CCCCn2c(=O)n(CC3CS3)c3ccccc32)c2ccccc2n1CC1CS1 (configuration not stated)
EC50: > 28.8 µM | IC50: 9.12 µM

COc1ccc(-n2sc3ncc(C)cc3c2=O)cc1
EC50: 0.49 µM | IC50: 10.5 µM

C(/C=C\c1ccccc1)=Nc1ccccc1
EC50: > 34.7 µM | IC50: > 34.7 µM

CCCC[PH+](CCCC)CCCC.[C-]#[O+].[C-]#[O+].[C-]#[O+].[C-]#[O+].[Fe]
EC50: > 200 µM | IC50: > 200 µM

CCOc1nnnc2nc[nH]c12
EC50: > 200 µM | IC50: 70.8 µM

O=C1C(SCCO)=C(SCCO)C(=O)c2[nH]cnc21
EC50: > 437 µM | IC50: 42.7 µM

OC1C2CCCCN2C[C@@H](O)[C@H]1O (some centres not stated)
EC50: > 200 µM | IC50: > 200 µM

OC1c2ccccc2C(O)C2OC12 (configuration not stated)
EC50: > 200 µM | IC50: 115 µM

CC(=O)O[C@]12CCCCC1C1(O)C(O)CCCCC12 (some centres not stated)
EC50: > 200 µM | IC50: > 200 µM

CN1CC=C(C#CC(C)(C)O)CC1
EC50: > 200 µM | IC50: > 200 µM

Cc1nc(NCc2ccccc2)c2cc[nH]c2n1
EC50: > 174 µM | IC50: 107 µM

CC(C)CCC[C@@H](C)C1CCC2[C@@H]3CCC4C[C@@H](CC/C=C/CC[C@H]5CC[C@@]6(C)C(CC[C@@H]7C6CC[C@@]6(C)C7CCC6[C@H](C)CCCC(C)C)C5)CC[C@]4(C)C3CC[C@@]21C (some centres not stated)
EC50: > 9.55 µM | IC50: > 9.55 µM

Cc1[se]c(N)nc1-c1ccccc1
outcome: inactive

COc1cccc(CCn2c(N)c(C(=O)O)c3ccc([N+](=O)[O-])cc3c2=O)c1
EC50: > 200 µM | IC50: 24 µM

COc1cc2c(cc1OC)C(=O)/C(=C/c1ccccc1)CC2
EC50: > 200 µM | IC50: 117 µM

COc1ccccc1/C=C/c1ccnc2ccccc12
EC50: > 200 µM | IC50: 32.4 µM

COS(=O)(=O)c1c(N)n(C)c(=O)n(C)c1=O
EC50: > 200 µM | IC50: 66.1 µM

O=C1OC2C(O)OC3COC(=O)c4cc(O)c(O)c(O)c4-c4c(O)c(O)c5oc(=O)c6c(c(O)c(O)c7oc(=O)c4c5c76)-c4c(cc(O)c(O)c4O)C(=O)OC3C2OC(=O)c2cc(O)c(O)c(O)c2-c2c1cc(O)c(O)c2O (configuration not stated)
EC50: 0.724 µM | IC50: 21.4 µM

CC1CCC2[C@@H](C)COC3O[C@]4(C)CCC1C32OO4 (some centres not stated)
EC50: > 339 µM | IC50: 302 µM

O=C(CC1OC(O)C(Cl)=C1Cl)c1cccnc1 (configuration not stated)
EC50: 24.5 µM | IC50: 501 µM

COc1cc([C@H]2CC(=O)C[C@H](c3cc(OC)c(OC)c(OC)c3)C23C(=O)c2ccccc2C3=O)cc(OC)c1OC
EC50: > 200 µM | IC50: > 200 µM

O=C(O)C(=O)/C=C\c1ccc(Cl)cc1
EC50: > 617 µM | IC50: 191 µM

N#CC1=CNc2sccc2S1(=O)=O
EC50: > 200 µM | IC50: > 200 µM

OC/C=C/[C@H](OCc1ccccc1)[C@H](/C=C/CO)OCc1ccccc1
EC50: > 200 µM | IC50: 57.5 µM

CCCCCc1nnc2n1N=C(c1ccc(Cl)cc1)CS2
EC50: > 200 µM | IC50: > 200 µM

CC(C)=CCC/C(C)=C/CC12OC(C)(C)C(Cl)CC1(Cl)C(=O)c1c(O)cc(O)cc1C2=O (configuration not stated)
EC50: > 37.2 µM | IC50: 11 µM

Nc1c(C(=O)OCc2ccccc2)[nH]c(=O)[nH]c1=O
EC50: > 200 µM | IC50: > 200 µM

CCOC(=O)C1=C(C)N(C2OC(COC(C)=O)C(OC(C)=O)C(OC(C)=O)C2OC(C)=O)C(=O)NC1c1ccccc1 (configuration not stated)
EC50: > 31.6 µM | IC50: > 31.6 µM

N#Cc1cccc(C2SCc3nc4ccccc4n32)c1 (configuration not stated)
EC50: 19.5 µM | IC50: 60.3 µM

Cc1ccc(C(=O)/C=C/c2ccco2)cc1
EC50: > 170 µM | IC50: 53.7 µM

COc1ccc(/C=C2/SC(c3ccc(Cl)cc3)N(NC(=O)CCCCCCCCC(=O)NN3C(=O)/C(=C\c4ccc(OC)c(OC)c4)SC3c3ccc(Cl)cc3)C2=O)cc1OC (configuration not stated)
EC50: 67.6 µM | IC50: 182 µM

Cc1cc(S(=O)(=O)NC2=NC(c3ccccc3)c3ccccc3N2)c(S)cc1Cl (configuration not stated)
EC50: > 200 µM | IC50: > 200 µM

COc1cc2c3c(c1OC)C1(C=CC(=O)C=C1)CC3N(C(C)=O)CC2 (configuration not stated)
outcome: inactive

O=C(O)c1ccccc1-n1nc(C(=O)O)c(N=Nc2ccc(/C=C/c3ccc(N=Nc4c(C(=O)O)nn(-c5ccccc5C(=O)O)c4O)cc3S(=O)(=O)O)c(S(=O)(=O)O)c2)c1O.[Cu+2].[Na+]
EC50: > 0.479 µM | IC50: > 0.479 µM

C/C(=N\NC(=O)c1ccncc1)c1cccc(F)c1
EC50: > 195 µM | IC50: > 195 µM

NC(=O)NC(=NCc1ccccc1)NCc1ccccc1
EC50: > 776 µM | IC50: 107 µM

CCOC(=O)C1C(c2ccc(F)cc2)C(C(=O)OCC)C(O)(C(F)(F)F)OC1(O)C(F)(F)F (configuration not stated)
outcome: inactive

COc1cc2ccnc3c2c(c1OC)-c1ccccc1C3=O
outcome: inactive

Cc1nc2ccc(N=NN(C)C)cc2[nH]1
EC50: > 200 µM | IC50: > 200 µM

O=C(O)c1cccc2cccc(-c3c4ccc(=O)c(O)c-4oc4c(O)c(O)ccc34)c12
EC50: 29.5 µM | IC50: 33.1 µM

Nc1ccc(C(=O)N/C(=C\c2ccc3c(c2)OCO3)c2nc3ccccc3s2)cc1
outcome: inactive

COP(C)(=O)/C(Cc1ccccc1)=N\O (configuration not stated)
EC50: > 200 µM | IC50: > 200 µM

Cc1cc(Cc2cc(C)c(O)c(Br)c2)cc(Br)c1O
EC50: > 200 µM | IC50: 1.58 µM

COC1/C=C/OC2(C)Oc3c(C)c(O)c4c(O)c(c(/C=N/N5CCC(N6CCCCC6)CC5)c(O)c4c3C2=O)NC(=O)C(C)=C/C=C/C(C)C(O)C(C)C(O)C(C)C(OC(C)=O)C1C (configuration not stated)
EC50: > 75.9 µM | IC50: > 75.9 µM

O/N=C1/C(=C/c2ccc(Cl)c(Cl)c2)CCCC1C(NO)c1ccc(Cl)c(Cl)c1 (configuration not stated)
EC50: > 3.16 µM | IC50: > 3.16 µM

COc1cc(/C=C2\C(=O)N(C(=O)Cc3ccccc3)N=C2C)ccc1O
EC50: > 53.7 µM | IC50: > 53.7 µM

COc1cccc2c(=O)oc(-c3ccc(C(C)(C)C)cc3)nc12
EC50: > 200 µM | IC50: 64.6 µM

CCOC(=O)c1cc2c(=O)cccnc2o1
EC50: > 52.5 µM | IC50: > 52.5 µM

c1ccc2sc(SSc3nc4ccccc4s3)nc2c1
EC50: > 200 µM | IC50: > 200 µM

CN(C)NC(=S)NC12CC3CC(CC(C3)C1)C2
outcome: inactive

Cc1ccnc2[nH]c3ccccc3c(=O)c12
EC50: > 200 µM | IC50: 14.5 µM

CCOP1(OCC)(SSC)OC(=O)C(C)S1 (configuration not stated)
EC50: > 813 µM | IC50: 617 µM

COc1cc2c(cc1OC)C(C(=O)c1cccc(OC)c1OC)C(=O)N(C)CC2 (configuration not stated)
EC50: > 126 µM | IC50: > 126 µM

Clc1ccc(/C(=C\c2ccccc2)Cn2ccnc2)cc1
EC50: > 200 µM | IC50: 16.2 µM

CC(=O)N=C1N(/C=C2\C(=O)Oc3ccccc3C2=O)C(=O)/C(=C/c2ccccc2Cl)N1C
EC50: > 200 µM | IC50: 148 µM

CCOC(=O)CCC(NC(=O)N1CCN(c2c(C)nc(C)[nH]c2=O)CC1)C(=O)OCC (configuration not stated)
EC50: > 200 µM | IC50: > 200 µM

CCCCCCCCC(O)C(O)CCCCCCCC(=O)O (configuration not stated)
EC50: > 200 µM | IC50: 53.7 µM

COCC(=O)OC1CCn2c1nc1c2C(=O)C(C)=C(NC(C)=O)C1=N (configuration not stated)
EC50: > 200 µM | IC50: 2.88 µM

N#CC(/C(CCC(=O)Nc1ccc(Cl)cc1)=N/NC(=O)c1cc2ccccc2cc1O)c1ccccc1 (configuration not stated)
EC50: > 51.3 µM | IC50: 12.6 µM

CSc1ncc2c(C#N)c3n(C)c4ccccc4n3c(=O)c2n1
EC50: > 100 µM | IC50: > 100 µM

O=C1NC2(CCNCC2)Oc2ccccc21
EC50: > 200 µM | IC50: > 200 µM

COc1ccc2c(c1)CC[C@@H]1C2CC[C@]2(C)C(=C=CP(=O)(O)O)CCC12 (some centres not stated)
EC50: > 200 µM | IC50: > 200 µM

CC(C)(C)OC(=O)N[C@@H]1C(=O)N2CCCOC12 (some centres not stated)
outcome: inactive

COC(=O)Nc1nc2ccc(C(=O)C3CC3)cc2[nH]1
EC50: > 200 µM | IC50: 0.219 µM

COc1cc2cc3cc(-c4ccc(Cl)cc4)c(N4CCN(C)CC4)nc3nc2cc1OC
EC50: > 39.8 µM | IC50: 6.61 µM

CC1(C)N=C(C(N)=O)c2[nH]cnc2N1
EC50: > 200 µM | IC50: > 200 µM

COc1ccc(C=C2C(=O)OC(C)(C)OC2=O)cc1OC
EC50: > 170 µM | IC50: > 170 µM

COc1cc2c3c(c1)nnn3C(=O)CS2
EC50: > 200 µM | IC50: > 200 µM

COc1cc(/C=N/NC2=NCCCN2)ccc1O
EC50: > 200 µM | IC50: > 200 µM
